In US6340741B1, “Potent genetic switch allowing regulated gene expression in eukaryotic cells” (University of Lausanne, priority 1998, dated 2002):

System: p5xGTTI-Luc+ luciferase reporter in BHK 21 cells
Experiment: Repression of luciferase reporter activated by constitutive GAL4-VP16, transient transfection of BHK 21 cells (Example 2)
Type: cell-based, hamster
Settings: 100 ng/ml dox
Procedure: Baby hamster kidney 21 (BHK 21) cells were cultivated in DMEM (Gibco-BRL) supplemented with 10% FCS (Gibco-BRL). For transfectiors, cells were seeded in 24 well plates at about 40% confluency and allowed to attach to the surface. After washing with PBS, cells were exposed to the transfection mix for 4 hours. Thereafter, the transfection mix was replaced by medium which contained, where indicated, 100 ng/ml doxycycline hydrochloride (Sigma #D9891). Generally, medium was replaced every 24 hours and cells were harvested 48 hours post-transfection.
For luciferase and β-galactosidase measurements, cell extracts were prepared as follows. […] After a delay of 2 sec light emission was measured for 2 sec.
Colorimetric determination of β-galactosidase activity was performed by adding 150 μl CPRG buffer (60 mM Na2HPO4 7 H2O, 40 mM NaH2PO4, 10 mM KCl, 1 mM MgSO4, 50 mM β-mercaptoethanol) and 20 μl CPRG solution (Boehringer Mannheim #884308, 4 mg/ml in H2O) to the remaining 30 μl cell extract in the 96 well plate. […] Absorbance was measured at 575 nm in a plate reader (Spectramax 340, Molecular Devices) and samples were normalized to wells in which lysis buffer was assayed.
Relative light units were calculated by normalizing luciferase for β-galactosidase activity. […]

C[C@H]1c2cccc(O)c2C(=O)C2=C(O)[C@]3(O)C(=O)C(C(N)=O)=C(O)[C@@H](N(C)C)[C@@H]3[C@@H](O)[C@@H]21.Cl [dox, doxycycline hydrochloride] was tested, and the “effect of addition of the dox ligand on repression” value was “abolished the repression”.
